# Assay results: patent publication US9795140B2, “Molecules having pesticidal utility, and intermediates, compositions, and processes, related thereto” (priority 2015, dated 2017)
# What was measured:
# Assay type in all cases: in vivo
# [1] = test system: Beet Armyworm (Spodoptera exigua, LAPHEG); assay: Bioassay on Beet Armyworm (BAW), 128-well diet tray assay; details: 168 h, 50 μg/cm^2 on artificial diet, second instar larvae, 25° C., five to seven days, average of eight wells, read-out: BAW % Control (or Mortality) rating
# Description: (§1) Certain molecules disclosed in this document were tested against BAW and CL using procedures described in the following examples. In the reporting of the results, the “BAW & CL Rating Table” was used (See Table Section).
# Bioassays on BAW were conducted using a 128-well diet tray assay. One to five second instar BAW larvae were placed in each well (3 mL) of the diet tray that had been previously filled with approximately 1.5 mL of artificial diet to which 50 μg/cm^2 of the test molecule (dissolved in 50 μL of 90:10 acetone-water mixture) had been applied (to each of eight wells) and then allowed to dry. Trays were covered with a clear self-adhesive cover, vented to allow gas exchange, and held at 25° C., 14:10 light-dark for five to seven days. Percent mortality was recorded for the larvae in each well; activity in the eight wells was then averaged. The results are indicated in the table entitled “Table ABC: Biological Results” (See Table Section).
# [2] = test system: Yellow Fever Mosquito (Aedes aegypti, AEDSAE); assay: Bioassay on Yellow Fever Mosquito (YFM) larvae, 96-well plate; details: about 1 day-old larvae, room temperature, 3 days, scored on mortality
# Description: Certain molecules disclosed in this document were tested against YFM using procedures described in the following paragraph. In the reporting of the results, the “GPA & YFM Rating Table” was used (See Table Section).
# Master plates containing 400 μg of a molecule dissolved in 100 μL of dimethyl sulfoxide (DMSO) (equivalent to a 4000 ppm solution) are used. A master plate of assembled molecules contains 15 μL per well. To this plate, 135 μL of a 90:10 water/acetone mixture is added to each well. A robot is programmed to dispense 15 μL aspirations from the master plate into an empty 96-well shallow plate (“daughter” plate). There are 6 reps (“daughter” plates) created per master. The created “daughter” plates are then immediately infested with YFM larvae.
# The day before plates are to be treated, mosquito eggs are placed in Millipore water containing liver powder to begin hatching (4 g. into 400 mL). After the “daughter” plates are created using the robot, they are infested with 220 μL of the liver powder/larval mosquito mixture (about 1 day-old larvae). After plates are infested with mosquito larvae, a non-evaporative lid is used to cover the plate to reduce drying. Plates are held at room temperature for 3 days prior to grading. After 3 days, each well is observed and scored based on mortality. The results are indicated in the table entitled “Table ABC: Biological Results” (See Table Section).
# [3] = test system: Cabbage Looper (Trichoplusia ni, TRIPNI); assay: Bioassay on Cabbage Looper (CL), 128-well diet tray assay; details: 168 h, 50 μg/cm^2 on artificial diet, second instar larvae, 25° C., five to seven days, average of eight wells, read-out: CL % Control (or Mortality) rating
# Description: as §1
# Bioassays on CL were conducted using a 128-well diet tray assay, one to five second instar CL larvae were placed in each well (3 mL) of the diet tray that had been previously filled with 1 mL of artificial diet to which 50 μg/cm^2 of the test molecule (dissolved in 50 μL of 90:10 acetone-water mixture) had been applied (to each of eight wells) and then allowed to dry. Trays were covered with a clear self-adhesive cover, vented to allow gas exchange, and held at 25° C., 14:10 light-dark for five to seven days. Percent mortality was recorded for the larvae in each well; activity in the eight wells was then averaged. The results are indicated in the table entitled “Table ABC: Biological Results” (See Table Section).
SMILES,mortality at 50 µg/cm2 [1] [%],YFM % Control (or Mortality) rating [2],mortality at 50 µg/cm2 [3] [%]
"CCNC(=O)c1cc(NC(=O)[C@H]2[C@H](c3cc(Cl)c(OC)c(Cl)c3)C2(Cl)Cl)ccc1Cl (relative stereo) [F85, trans-2-Chloro-5-(2,2-dichloro-3-(3,5-dichloro-4-methoxyphenyl)cyclopropane-1-carboxamido)-N-ethylbenzamide]",50 to 100,B (More than 0-Less than 80),50 to 100
"COc1c(Cl)cc([C@H]2[C@H](C(=O)Nc3ccc(Cl)c(C(=O)NCCF)c3)C2(Cl)Cl)cc1Cl (relative stereo) [F86, trans-2-Chloro-5-(2,2-dichloro-3-(3,5-dichloro-4-methoxyphenyl)cyclopropane-1-carboxamido)-N-(2-fluoroethyl)benzamide]",50 to 100,B (More than 0-Less than 80),50 to 100
"COc1c(Cl)cc([C@H]2[C@H](C(=O)Nc3ccc(Cl)c(C(=O)NCC(F)(F)F)c3)C2(Cl)Cl)cc1Cl (relative stereo) [F87, trans-2-Chloro-5-(2,2-dichloro-3-(3,5-dichloro-4-methoxyphenyl)cyclopropane-1-carboxamido)-N-(2,2,2-trifluoroethyl)benzamide]",50 to 100,B (More than 0-Less than 80),50 to 100
"COc1c(Cl)cc([C@H]2[C@H](C(=O)Nc3ccc(Cl)c(C(=O)NCCC(F)(F)F)c3)C2(Cl)Cl)cc1Cl (relative stereo) [F88, trans-2-Chloro-5-(2,2-dichloro-3-(3,5-dichloro-4-methoxyphenyl)cyclopropane-1-carboxamido)-N-(3,3,3-trifluoropropyl)benzamide]",50 to 100,B (More than 0-Less than 80),50 to 100
"CCNC(=O)c1cc(NC(=O)[C@H]2[C@H](c3cc(Cl)cc(Cl)c3)C2(Cl)Cl)cc(Cl)c1Cl (relative stereo) [F91, trans-2,3-Dichloro-5-(2,2-dichloro-3-(3,5-dichlorophenyl)cyclopropane-1-carboxamido)-N-ethylbenzamide]",50 to 100,A (80-100),50 to 100
"O=C(NCCF)c1cc(NC(=O)[C@H]2[C@H](c3cc(Cl)cc(Cl)c3)C2(Cl)Cl)cc(Cl)c1Cl (relative stereo) [F92, trans-2,3-Dichloro-5-(2,2-dichloro-3-(3,5-dichlorophenyl)cyclopropane-1-carboxamido)-N-(2-fluoroethyl)benzamide]",50 to 100,A (80-100),50 to 100
"O=C(NCCC(F)(F)F)c1cc(NC(=O)[C@H]2[C@H](c3cc(Cl)cc(Cl)c3)C2(Cl)Cl)cc(Cl)c1Cl (relative stereo) [F94, trans-2,3-Dichloro-5-(2,2-dichloro-3-(3,5-dichlorophenyl)cyclopropane-1-carboxamido)-N-(3,3,3-trifluoropropyl)benzamide]",50 to 100,A (80-100),50 to 100
"CCCNC(=O)c1cc(NC(=O)[C@H]2[C@H](c3cc(Cl)cc(Cl)c3)C2(Cl)Cl)cc(Cl)c1Cl (relative stereo) [F95, trans-2,3-Dichloro-5-(2,2-dichloro-3-(3,5-dichlorophenyl)cyclopropane-1-carboxamido)-N-propylbenzamide]",50 to 100,A (80-100),50 to 100
"CC(NC(=O)c1cc(NC(=O)[C@H]2[C@H](c3cc(Cl)cc(Cl)c3)C2(Cl)Cl)ccc1Cl)c1ccc(F)cc1 (relative stereo) [F96, 2-chloro-5-(trans-2,2-dichloro-3-(3,5-dichlorophenyl)cyclopropane-1-carboxamido)-N-(1-(4-fluorophenyl)ethyl)benzamide]",50 to 100,A (80-100),50 to 100
"CC(C)(NC(=O)c1cc(NC(=O)[C@H]2[C@H](c3cc(Cl)cc(Cl)c3)C2(Cl)Cl)ccc1Cl)c1ccc(F)cc1 (relative stereo) [F97, 2-Chloro-5-(trans-2,2-dichloro-3-(3,5-dichlorophenyl)cyclopropane-1-carboxamido)-N-(2-(4-fluorophenyl)propan-2-yl)benzamide]",50 to 100,A (80-100),50 to 100
"CCNC(=O)c1cc(NC(=O)[C@H]2[C@H](c3cc(Cl)cc(Cl)c3)C2(Cl)Cl)c(Cl)cc1Cl (relative stereo) [F98, trans-2,4-Dichloro-5-(2,2-dichloro-3-(3,5-dichlorophenyl)cyclopropane-1-carboxamido)-N-ethylbenzamide]",0 to 50,A (80-100),0
"O=C(NCCF)c1cc(NC(=O)[C@H]2[C@H](c3cc(Cl)cc(Cl)c3)C2(Cl)Cl)c(Cl)cc1Cl (relative stereo) [F99, trans-2,4-Dichloro-5-(2,2-dichloro-3-(3,5-dichlorophenyl)cyclopropane-1-carboxamido)-N-(2-fluoroethyl)benzamide]",50 to 100,A (80-100),50 to 100
"O=C(NCC(F)(F)F)c1cc(NC(=O)[C@H]2[C@H](c3cc(Cl)cc(Cl)c3)C2(Cl)Cl)c(Cl)cc1Cl (relative stereo) [F100, trans-2,4-Dichloro-5-(2,2-dichloro-3-(3,5-dichlorophenyl)cyclopropane-1-carboxamido)-N-(2,2,2-trifluoroethyl)benzamide]",50 to 100,A (80-100),0
"CCCNC(=O)c1cc(NC(=O)[C@H]2[C@H](c3cc(Cl)cc(Cl)c3)C2(Cl)Cl)c(Cl)cc1Cl (relative stereo) [F101, trans-2,4-Dichloro-5-(2,2-dichloro-3-(3,5-dichlorophenyl)cyclopropane-1-carboxamido)-N-propylbenzamide]",0,D (No activity noticed in this bioassay),0
"O=C(NCCC(F)(F)F)c1cc(NC(=O)[C@H]2[C@H](c3cc(Cl)cc(Cl)c3)C2(Cl)Cl)c(Cl)cc1Cl (relative stereo) [F102, trans-2,4-Dichloro-5-(2,2-dichloro-3-(3,5-dichlorophenyl)cyclopropane-1-carboxamido)-N-(3,3,3-trifluoropropyl)benzamide]",0 to 50,A (80-100),0
"CCNC(=O)c1cc(NC(=O)[C@H]2[C@H](c3ccc(F)c(Cl)c3)C2(Cl)Cl)ccc1Cl (relative stereo) [F103, trans-2-Chloro-5-(2,2-dichloro-3-(3-chloro-4-fluorophenyl)cyclopropane-1-carboxamido)-N-ethylbenzamide]",50 to 100,A (80-100),50 to 100
"O=C(NCCF)c1cc(NC(=O)[C@H]2[C@H](c3ccc(F)c(Cl)c3)C2(Cl)Cl)ccc1Cl (relative stereo) [F104, trans-2-Chloro-5-(2,2-dichloro-3-(3-chloro-4-fluorophenyl)cyclopropane-1-carboxamido)-N-(2-fluoroethyl)benzamide]",50 to 100,A (80-100),50 to 100
